Measurements from US20240409585A1, “MACROCYCLIC IMMUNOMODULATORS” (priority 2021, published 2024).
Numbered stars: 1 amine (or outer) side, 2 acyl side, 3 side chain; on linkers, the order of the positions; unused ones are H or OH. Bridge positions count the residues as written; N and C are the ends. Square brackets hold non-standard residues; d marks the D form. Peptide text beside a SMILES is read from it. * marks the point of attachment. ξ: configuration not given here. X21 = CN(C)P(=O)(Oc1ccc(C[C@H](N[*:1])C(=O)[*:2])cc1)N(C)C; Phe(4-(4-F-Ph)) = N[C@@H](Cc1ccc(-c2ccc(F)cc2)cc1)C(=O)O; Tyr(3-NO2) = N[C@@H](Cc1ccc(O)c([N+](=O)[O-])c1)C(=O)O; Phe(4-COOH) = N[C@@H](Cc1ccc(C(=O)O)cc1)C(=O)O; Bip = N[C@@H](Cc1ccc(-c2ccccc2)cc1)C(=O)O; Phe(3-Me) = Cc1cccc(C[C@H](N)C(=O)O)c1; Bta = N[C@@H](Cc1csc2ccccc12)C(=O)O; Val(3-OH) = CC(C)(O)[C@H](N)C(=O)O; aIle = CC[C@@H](C)[C@H](N)C(=O)O; 2Pal = N[C@@H](Cc1ccccn1)C(=O)O; 4Pal = N[C@@H](Cc1ccncc1)C(=O)O; Cha = N[C@@H](CC1CCCCC1)C(=O)O; Cit = NC(=O)NCCC[C@H](N)C(=O)O; Ile(3ξ) = CCC(C)[C@H](N)C(=O)O; NMeOrn = CN[C@@H](CCCN)C(=O)O; Thr(3ξ) = CC(O)[C@H](N)C(=O)O; Carboxymethyl = O=C(O)C*; NMeA = CN[C@@H](C)C(=O)O; Nle = CCCC[C@H](N)C(=O)O; Orn = NCCC[C@H](N)C(=O)O; Dab = NCC[C@H](N)C(=O)O; Dap = NC[C@H](N)C(=O)O; ξV = CC(C)C(N)C(=O)O; ξC = NC(CS)C(=O)O

Molecular target: T1, PE-labeled human PD-L1-Ig binding to Jurkat cell line over-expressing human PD-1 (Jurkat-PD-1) (Homo sapiens, UniProt Q15116)
T1 construct: expressed in transfected cells; host or cells: Jurkat
T1 sequence (Q15116 25-288): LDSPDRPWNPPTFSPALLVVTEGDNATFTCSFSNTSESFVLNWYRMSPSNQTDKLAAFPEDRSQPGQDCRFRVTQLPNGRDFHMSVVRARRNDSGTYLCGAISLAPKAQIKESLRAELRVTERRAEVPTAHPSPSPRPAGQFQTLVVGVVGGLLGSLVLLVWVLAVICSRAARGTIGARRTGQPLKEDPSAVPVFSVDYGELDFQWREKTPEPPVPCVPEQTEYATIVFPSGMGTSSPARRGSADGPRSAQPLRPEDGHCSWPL
Test: Jurkat-PD-1 Cell Binding High-Content Screening Assay (CBA): Method 1
Conditions: Jurkat HPDL1 PD1 IC50 (uM) (Method 1), Jurkat-hPD-1 cells, PE-labeled PD-L1-Ig 20 nM final

`CC(C)C[C@@H]1NC(=O)[C@H](Cc2c[nH]c3ccccc23)NC(=O)[C@H](CC(=O)O)NC(=O)[C@H](Cc2ccc(OP(=O)(N(C)C)N(C)C)cc2)NC(=O)[C@H](Cc2ccccc2)NC(=O)CSC[C@@H](C(=O)N[C@@H](C)C(N)=O)NC(=O)[C@H](CO)NC(=O)[C@H](C(C)C)NC(=O)[C@H](CC(C)C)NC(=O)[C@H](CC(N)=O)NC(=O)[C@@H](C)NC(=O)[C@H](C)N(C)C(=O)[C@H](C(C)C)NC(=O)[C@H](Cc2ccc(-c3ccccc3)cc2)NC1=O` [Compound 1764] ({CH2CO}-F[X21]DWL[Bip]V[NMeA][dA]NLVSCA-NH2; thioether N-14) showed an IC50 of 0.04 µM.

Same assay, conditions: Jurkat-hPD-1 cells, PE-labeled PD-L1-Ig 20 nM final; read-out: Jurkat HPDL1 PD1 IC50 (uM) (Method 1)

`CC(C)C[C@@H]1NC(=O)[C@H](CCCN)NC(=O)[C@H](Cc2csc3ccccc23)NC(=O)[C@H](C)N(C)C(=O)[C@H](CCC(=O)O)NC(=O)[C@H](Cc2ccc(-c3ccccc3)cc2)NC(=O)[C@H](C(C)C)NC(=O)[C@H](Cc2c[nH]c3ccccc23)NC(=O)[C@H](CC(=O)O)NC(=O)[C@H](Cc2ccc(O)cc2)NC(=O)[C@H](Cc2ccccc2)NC(=O)CSC[C@@H](C(=O)N[C@@H](C)C(N)=O)NC(=O)[C@H]([C@@H](C)O)NC(=O)[C@H](C(C)C)NC1=O` [Compound 1132] ({CH2CO}-FYDWV[Bip]E[NMeA][Bta][Orn]LVTCA-NH2; thioether N-14) and `CC(C)C[C@@H]1NC(=O)[C@H](CCCNC(=N)N)NC(=O)[C@@H](Cc2ccccc2)NC(=O)[C@H](C)N(C)C(=O)[C@H](CCCNC(=N)N)NC(=O)[C@H](Cc2ccc(-c3ccccc3)cc2)NC(=O)[C@H](C(C)C)NC(=O)[C@H](Cc2c[nH]c3ccccc23)NC(=O)[C@H](CC(=O)O)NC(=O)[C@H](Cc2ccc(O)cc2)NC(=O)[C@H](CC(N)=O)NC(=O)CSC[C@@H](C(=O)N[C@@H](C)C(N)=O)NC(=O)[C@H]([C@@H](C)O)NC(=O)[C@H](C(C)C)NC1=O` [Compound 1153] ({CH2CO}-NYDWV[Bip]R[NMeA][dF]RLVTCA-NH2; thioether N-14) are within 1.5-fold of each other in IC50: 0.16 µM for the first, 0.19 µM for the second.

First: CC(C)C[C@@H]1NC(=O)[C@H](CCN)NC(=O)[C@@H](CC(C)C)NC(=O)[C@H](C)N(C)C(=O)[C@H](CCCNC(=N)N)NC(=O)[C@H](Cc2ccc(-c3ccccc3)cc2)NC(=O)[C@H](C(C)C)NC(=O)[C@H](Cc2c[nH]c3ccccc23)NC(=O)[C@H](CC(=O)O)NC(=O)[C@H](Cc2ccc(O)cc2)NC(=O)[C@H](CC(N)=O)NC(=O)CSC[C@@H](C(=O)N[C@H](C)C(N)=O)NC(=O)[C@H]([C@@H](C)O)NC(=O)[C@H](C(C)C)NC1=O [Compound 1183] ({CH2CO}-NYDWV[Bip]R[NMeA][dL][Dab]LVTC[dA]-NH2; thioether N-14)
Second: CC(C)C[C@@H]1NC(=O)[C@H](CCCCN)NC(=O)[C@@H](CC(C)C)NC(=O)[C@H](C)N(C)C(=O)[C@H](CCCNC(=N)N)NC(=O)[C@H](Cc2ccc(-c3ccccc3)cc2)NC(=O)[C@H](C(C)C)NC(=O)[C@H](Cc2c[nH]c3ccccc23)NC(=O)[C@H](CC(=O)O)NC(=O)[C@H](Cc2ccc(O)cc2)NC(=O)[C@H](CC(N)=O)NC(=O)CSC[C@@H](C(=O)N[C@@H](C)C(N)=O)NC(=O)[C@H]([C@@H](C)O)NC(=O)[C@H](C(C)C)NC1=O [Compound 1280] ({CH2CO}-NYDWV[Bip]R[NMeA][dL]KLVTCA-NH2; thioether N-14)
The IC50 of the first is 1.9-fold higher: 0.15 µM for the first, 0.08 µM for the second. The second is the more potent here.

Compared with `CC[C@@H](C)[C@@H]1NC(=O)[C@H](Cc2ccc(-c3ccccc3)cc2)NC(=O)[C@H](CC(C)C)NC(=O)[C@H](Cc2c[nH]c3ccccc23)NC(=O)[C@H](CC(=O)O)NC(=O)[C@H](Cc2ccc(C(=O)O)cc2)NC(=O)[C@H](Cc2ccc(OCC(=O)O)cc2)NC(=O)CSC[C@@H](C(=O)N[C@@H](CCCCN)C(N)=O)NC(=O)[C@H](CC(N)=O)NC(=O)C(C(C)C)NC(=O)[C@H](CC(C)C)NC(=O)[C@H](CC(N)=O)NC(=O)[C@@H](CC(C)C)NC(=O)[C@H](C)N(C)C1=O` (stereo partly drawn) [Compound 2109] ({CH2CO}-Y(Carboxymethyl)[Phe(4-COOH)]DWL[Bip][aIle][NMeA][dL]NL[ξV]NCK-NH2; thioether N-14), `Cc1cccc(C[C@@H]2NC(=O)[C@H](CC(=O)O)NC(=O)[C@H](Cc3ccc(C(=O)O)cc3)NC(=O)[C@H](Cc3ccc(OCC(=O)O)cc3)NC(=O)CSC[C@@H](C(=O)N[C@@H](CO)C(N)=O)NC(=O)[C@H](CO)NC(=O)[C@H](C(C)C)NC(=O)[C@H](CC(C)C)NC(=O)[C@H](CCN)NC(=O)[C@@H](CC(C)C)NC(=O)[C@H](C)N(C)C(=O)[C@H](C(C)C)NC(=O)[C@H](Cc3ccc(-c4ccccc4)cc3)NC(=O)[C@H](CC(C)C)NC2=O)c1` [Compound 2111] ({CH2CO}-Y(Carboxymethyl)[Phe(4-COOH)]D[Phe(3-Me)]L[Bip]V[NMeA][dL][Dab]LVSCS-NH2; thioether N-14) is 20-fold lower in IC50: 0.2 µM for the first, 0.01 µM for the second.

Going from `CCC(C)[C@@H]1NC(=O)[C@H](Cc2ccc(-c3ccccc3)cc2)NC(=O)[C@H](C(C)C)NC(=O)[C@H](Cc2c[nH]c3ccccc23)NC(=O)[C@H](CC(=O)O)NC(=O)[C@H](Cc2ccc(O)cc2)NC(=O)[C@H](Cc2ccncc2)NC(=O)CSCC(C(=O)N[C@@H](CCCCN)C(=O)O)NC(=O)[C@H](C(C)O)NC(=O)[C@H](C(C)C)NC(=O)[C@H](CC2CCCCC2)NC(=O)[C@H](CC(N)=O)NC(=O)[C@@H](CC(C)C)NC(=O)[C@H](C)N(C)C1=O` (stereo partly drawn) [Compound 2215] ({CH2CO}-[4Pal]YDWV[Bip][Ile(3ξ)][NMeA][dL]N[Cha]V[Thr(3ξ)][ξC]K-OH; thioether N-14) to `CCCC[C@@H]1NC(=O)[C@H](CCCNC(=N)N)NC(=O)[C@@H](CC(C)C)NC(=O)[C@H](C)N(C)C(=O)[C@H](C(C)C)NC(=O)[C@H](Cc2ccc(-c3ccccc3)cc2)NC(=O)[C@H](C(C)C)NC(=O)[C@H](Cc2c[nH]c3ccccc23)NC(=O)[C@H](CC(=O)O)NC(=O)[C@H](Cc2ccc(O)cc2)NC(=O)[C@H](CN)NC(=O)CSC[C@@H](C(=O)N[C@@H](C)C(N)=O)NC(=O)[C@H]([C@@H](C)O)NC(=O)[C@H](C(C)C)NC1=O` [Compound 1500] ({CH2CO}-[Dap]YDWV[Bip]V[NMeA][dL]R[Nle]VTCA-NH2; thioether N-14), the IC50 rises from 0.03 µM to 0.08 µM (2.7-fold). The first is the more potent here.

First: Cc1cccc(C[C@@H]2NC(=O)[C@H](CC(=O)O)NC(=O)[C@H](Cc3ccc(OCC(=O)O)cc3)NC(=O)[C@H](Cc3ccncc3)NC(=O)CSC[C@@H](C(=O)N[C@@H](CCN)C(N)=O)NC(=O)[C@H](CO)NC(=O)[C@H](C(C)(C)O)NC(=O)[C@H](CC3CCCCC3)NC(=O)[C@H](CCN)NC(=O)[C@@H](CC(C)C)NC(=O)[C@H](CCCN)N(C)C(=O)[C@H](Cc3ccc(OCC(=O)O)cc3)NC(=O)[C@H](Cc3ccc(-c4ccccc4)cc3)NC(=O)[C@H](Cc3ccc(OCC(=O)O)cc3)NC2=O)c1 [Compound 1836] ({CH2CO}-[4Pal]Y(Carboxymethyl)D[Phe(3-Me)]Y(Carboxymethyl)[Bip]Y(Carboxymethyl)[NMeOrn][dL][Dab][Cha][Val(3-OH)]SC[Dab]-NH2; thioether N-14)
Second: Cc1cccc(C[C@@H]2NC(=O)[C@H](CC(=O)O)NC(=O)[C@H](Cc3ccc(OCC(=O)O)cc3)NC(=O)[C@H]([C@@H](C)O)NC(=O)CSC[C@@H](C(N)=O)NC(=O)[C@H]([C@@H](C)O)NC(=O)[C@H](C(C)C)NC(=O)[C@H](CC3CCCCC3)NC(=O)[C@H](CC(N)=O)NC(=O)[C@@H](CC(C)C)NC(=O)[C@H](C)N(C)C(=O)[C@H](Cc3ccc(OCC(=O)O)cc3)NC(=O)[C@H](Cc3ccc(-c4ccccc4)cc3)NC(=O)[C@H](Cc3ccc(OCC(=O)O)cc3)NC2=O)c1 [Compound 1678] ({CH2CO}-TY(Carboxymethyl)D[Phe(3-Me)]Y(Carboxymethyl)[Bip]Y(Carboxymethyl)[NMeA][dL]N[Cha]VTC-NH2; thioether N-14)
The IC50 of the first is 4.5-fold higher: 0.67 µM for the first, 0.15 µM for the second.

Going from `CC(C)C[C@@H]1NC(=O)[C@H](CCN)NC(=O)[C@@H](CC(C)C)NC(=O)[C@H](C)N(C)C(=O)[C@H](CCCNC(N)=O)NC(=O)[C@H](Cc2ccc(-c3ccccc3)cc2)NC(=O)[C@H](C(C)C)NC(=O)[C@H](Cc2c[nH]c3ccccc23)NC(=O)[C@H](CC(=O)O)NC(=O)[C@H](Cc2ccc(O)c([N+](=O)[O-])c2)NC(=O)[C@H](Cc2ccccn2)NC(=O)CSC[C@@H](C(=O)N[C@@H](C)C(N)=O)NC(=O)[C@H]([C@@H](C)O)NC(=O)[C@H](C(C)C)NC1=O` [Compound 1337] ({CH2CO}-[2Pal][Tyr(3-NO2)]DWV[Bip][Cit][NMeA][dL][Dab]LVTCA-NH2; thioether N-14) to `CC(C)C[C@@H]1NC(=O)[C@H](Cc2c[nH]c3ccccc23)NC(=O)[C@H](CC(=O)O)NC(=O)[C@H](Cc2ccc(O)cc2)NC(=O)[C@H](Cc2ccccc2)NC(=O)CSC[C@@H](C(=O)N[C@@H](C)C(N)=O)NC(=O)[C@H](CO)NC(=O)[C@H](C(C)C)NC(=O)[C@H](CC(C)C)NC(=O)[C@H](CC(=O)O)NC(=O)[C@@H](C)NC(=O)[C@H](C)N(C)C(=O)[C@H](C(C)C)NC(=O)[C@H](Cc2ccc(-c3ccc(F)cc3)cc2)NC1=O` [Compound 1825] ({CH2CO}-FYDWL[Phe(4-(4-F-Ph))]V[NMeA][dA]DLVSCA-NH2; thioether N-14), the IC50 rises from 0.28 µM to 0.66 µM (2.4-fold).

`CC(C)C[C@@H]1NC(=O)[C@H](Cc2c[nH]c3ccccc23)NC(=O)[C@H](CC(=O)O)NC(=O)[C@H](Cc2ccc(C(=O)O)cc2)NC(=O)[C@H](Cc2ccc(OCC(=O)O)cc2)NC(=O)CSC[C@@H](C(=O)N[C@H](C)C(N)=O)NC(=O)[C@H](CCC(=O)O)NC(=O)[C@H](C(C)(C)O)NC(=O)[C@H](CC2CCCCC2)NC(=O)[C@H](CCN)NC(=O)[C@@H](CC(C)C)NC(=O)[C@H](C)N(C)C(=O)[C@H](C(C)(C)O)NC(=O)[C@H](Cc2ccc(-c3ccccc3)cc2)NC1=O` [Compound 1715] ({CH2CO}-Y(Carboxymethyl)[Phe(4-COOH)]DWL[Bip][Val(3-OH)][NMeA][dL][Dab][Cha][Val(3-OH)]EC[dA]-NH2; thioether N-14) was tested, and the IC50 was 0.06 µM.
